Assay: excess molar enthalpy (molar enthalpy of mixing); xn = mol fraction of the nth substance listed
Conditions: 298.15 K, 100 kPa

CC(=O)O + CC#N
Conditions	excess molar enthalpy [kcal/mol]
x2 = 0.0927	0.023
x2 = 0.1409	0.0359
x2 = 0.2787	0.0588
x2 = 0.381	0.0696
x2 = 0.571	0.0679
x2 = 0.7416	0.0474
x2 = 0.809	0.0379
x2 = 0.8722	0.0268
x2 = 0.915	0.019

CC(C)C(=O)O + CC#N
Conditions	excess molar enthalpy [kcal/mol]
x2 = 0.187	0.116
x2 = 0.2347	0.141
x2 = 0.2938	0.172
x2 = 0.3508	0.192
x2 = 0.3982	0.206
x2 = 0.4547	0.22
x2 = 0.5013	0.222
x2 = 0.5479	0.221
x2 = 0.6046	0.214
x2 = 0.6531	0.201
x2 = 0.6827	0.189
x2 = 0.7273	0.172
x2 = 0.8013	0.138
x2 = 0.9158	0.0654

CC(C)CC(=O)O + CC#N
Conditions	excess molar enthalpy [kcal/mol]
x2 = 0.0895	0.0454
x2 = 0.1287	0.0645
x2 = 0.1972	0.0978
x2 = 0.3371	0.151
x2 = 0.4026	0.175
x2 = 0.52	0.205
x2 = 0.5902	0.21
x2 = 0.6283	0.207
x2 = 0.7177	0.189
x2 = 0.7835	0.161
x2 = 0.8207	0.136
x2 = 0.8529	0.12
x2 = 0.8744	0.104
x2 = 0.9379	0.0492

CCC(=O)O + CC#N
Conditions	excess molar enthalpy [kcal/mol]
x2 = 0.156	0.0696
x2 = 0.2134	0.0896
x2 = 0.278	0.11
x2 = 0.3407	0.127
x2 = 0.399	0.139
x2 = 0.4626	0.148
x2 = 0.5057	0.151
x2 = 0.5993	0.145
x2 = 0.6517	0.136
x2 = 0.7248	0.118
x2 = 0.8046	0.0932

CCCC(=O)O + CC#N
Conditions	excess molar enthalpy [kcal/mol]
x2 = 0.089	0.0382
x2 = 0.1448	0.0632
x2 = 0.1884	0.0809
x2 = 0.2668	0.108
x2 = 0.4626	0.15
x2 = 0.523	0.155
x2 = 0.5889	0.152
x2 = 0.6417	0.147
x2 = 0.6605	0.143
x2 = 0.686	0.138
x2 = 0.7141	0.131
x2 = 0.7884	0.105
x2 = 0.8201	0.0917
x2 = 0.8728	0.0713
x2 = 0.9067	0.0519
x2 = 0.9377	0.031

CCCCC(=O)O + CC#N
Conditions	excess molar enthalpy [kcal/mol]
x2 = 0.1197	0.0643
x2 = 0.1899	0.1
x2 = 0.2311	0.12
x2 = 0.2782	0.139
x2 = 0.4131	0.183
x2 = 0.4825	0.199
x2 = 0.5404	0.205
x2 = 0.6211	0.202
x2 = 0.637	0.2
x2 = 0.6655	0.195
x2 = 0.7138	0.182
x2 = 0.7441	0.173
x2 = 0.8076	0.14
x2 = 0.8487	0.115
x2 = 0.9029	0.0725
x2 = 0.9603	0.0285
